Measured values taken from the supplement of paper PMC4862054.

How the values were obtained:
Conditions in all cases: incubation time: 72 h
MDA-MB-231 [1] = experiment: normalised viability (% of control), CellTiter-Blue; higher = more viable cells (about 100 = DMSO control)
Outline: (§1)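 Compound dissolved in 5 µl medium was pre-loaded into 384-well plates, and breast cancer cell lines in 20 µl suspension were seeded on top and incubated 72 h. After adding 2.5 µl CellTiter-Blue reagent for 2 h at 37 °C, fluorescence was read at 560/590 nm. Plates were normalised to vehicle (100) and a positive kill control (0), with Z'-factor quality control. Each value is normalised viability at a single listed concentration from the series.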

MFM-223 [2] = experiment: as above
Outline: as §1

CAL-148 [3] = experiment: as above
Outline: as §1

CAL-85-1 [4] = experiment: as above
Outline: as §1

SK-BR-3 = experiment: as above
Outline: as §1

CAL-120 [5] = experiment: as above
Outline: as §1

HDQ-P1 [6] = experiment: as above
Outline: as §1

CAL-51 [7] = experiment: as above
Outline: as §1

MDA-MB-468 = experiment: as above
Outline: as §1

BT-549 [8] = experiment: as above
Outline: as §1

BT-474 = experiment: drug sensitivity score (DSS), CellTox Green (DSS (AUC-based score)); higher = stronger drug effect (viability inhibition or cytotoxicity); extreme values may be limits of the assay
Outline: (§2)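 The drug sensitivity score reflects the area under a fitted dose-response curve. To obtain it, breast cancer cells in 20 µl suspension were seeded into 384-well plates containing compound at 5 concentrations, 10-fold apart over a compound-specific 10,000-fold range, and incubated 72 h. CellTox Green fluorescence (485/520 nm) was read first and CellTiter-Glo luminescence second, after 10 min at room temperature. Each plate was normalised to 0.1 % DMSO and a positive kill control.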

MDA-MB-231 [9] = experiment: as above
Outline: as §2

MFM-223 [10] = experiment: as above
Outline: as §2

CAL-148 [11] = experiment: as above
Outline: as §2

CAL-85-1 [12] = experiment: as above
Outline: as §2

CAL-120 [13] = experiment: as above
Outline: as §2

DU-4475 = experiment: as above
Outline: as §2

HCC1937 = experiment: as above
Outline: as §2

HCC1143 = experiment: as above
Outline: as §2

HCC1599 = experiment: as above
Outline: as §2

MDA-MB-436 = experiment: as above
Outline: as §2

HDQ-P1 [14] = experiment: as above
Outline: as §2

Hs578T = experiment: as above
Outline: as §2

CAL-51 [15] = experiment: as above
Outline: as §2

BT-549 [16] = experiment: as above
Outline: as §2

COc1ccc(S(=O)(=O)Nc2cccnc2Nc2ccc(O)cc2)cc1 [ABT-751]
normalised viability [%]
Conditions | BT-549 [8] | CAL-51 [7] | CAL-85-1 [4] | CAL-120 [5] | CAL-148 [3] | HDQ-P1 [6] | MDA-MB-231 [1] | MDA-MB-468 | MFM-223 [2] | SK-BR-3
3 nM | – | 114 | 94.1 | – | 91.9 | 91.2 | – | – | – | –
10 nM | 94.1 | – | – | 81.7 | – | – | 89.3 | 105 | 94.7 | 93.3
30 nM | – | 107 | 86.2 | – | 89.2 | 102 | – | – | – | –
100 nM | – | 107 | 88.9 | – | 86.7 | 107 | – | – | – | –
1000 nM | 77.2 | – | – | 26.8 | – | – | 28.8 | 55.9 | 62.6 | 16.9
10000 nM | 13.6 | – | – | 21.6 | – | – | 14.7 | 34.7 | 25.4 | 15.6

Conditions | drug sensitivity score
BT-474 | 0
BT-549 [16] | 10.2
CAL-51 [15] | 1.79
CAL-85-1 [12] | 12
CAL-120 [13] | 0.145
CAL-148 [11] | 0
DU-4475 | 0
HCC1143 | 0
HCC1599 | 0
HCC1937 | 0
HDQ-P1 [14] | 0
Hs578T | 7.06
MDA-MB-231 [9] | 8.51
MDA-MB-436 | 9.27
MFM-223 [10] | 4.05

Cc1cc(Nc2nc(N[C@@H](C)c3ncc(F)cn3)ncc2Cl)[nH]n1 [AZD1480]
normalised viability [%]
Conditions | BT-549 [8] | CAL-51 [7] | CAL-85-1 [4] | CAL-120 [5] | CAL-148 [3] | HDQ-P1 [6] | MDA-MB-231 [1] | MDA-MB-468 | MFM-223 [2] | SK-BR-3
0.3 nM | – | 115 | 102 | – | 93.8 | 106 | – | – | – | –
1 nM | 91.7 | – | – | 87.9 | – | – | 107 | 109 | 92.1 | 108
3 nM | – | 114 | 91.4 | – | 97.4 | 108 | – | – | – | –
10 nM | – | 110 | 96.4 | – | 99.3 | 107 | – | – | – | –
100 nM | 108 | – | – | 90.6 | – | – | 95.5 | 103 | 60.8 | 126
1000 nM | 90.4 | – | – | 72.1 | – | – | 85.7 | 84.9 | 46.2 | 102

Conditions | drug sensitivity score
BT-474 | 0
BT-549 [16] | 0.354
CAL-51 [15] | 0
CAL-85-1 [12] | 0
CAL-120 [13] | 0
CAL-148 [11] | 0
DU-4475 | 0
HCC1143 | 0
HCC1599 | 0
HCC1937 | 0
HDQ-P1 [14] | 0
Hs578T | 1.75
MDA-MB-231 [9] | 0
MDA-MB-436 | 0
MFM-223 [10] | 1.25

CNC(=O)c1ccccc1Sc1ccc2c(/C=C/c3ccccn3)n[nH]c2c1 [Axitinib]
normalised viability [%]
Conditions | BT-549 [8] | CAL-51 [7] | CAL-85-1 [4] | CAL-120 [5] | CAL-148 [3] | HDQ-P1 [6] | MDA-MB-231 [1] | MDA-MB-468 | MFM-223 [2] | SK-BR-3
3 nM | – | 107 | 93 | – | 83 | 101 | – | – | – | –
10 nM | 96.6 | – | – | 91.2 | – | – | 102 | 108 | 86.7 | 91
30 nM | – | 102 | 84 | – | 95.3 | 106 | – | – | – | –
100 nM | – | 98.2 | 104 | – | 90.1 | 92.1 | – | – | – | –
1000 nM | 92.6 | – | – | 94.7 | – | – | 88.7 | 99.4 | 47.6 | 88.9
10000 nM | 42.5 | – | – | 55.2 | – | – | 72.1 | 43.8 | 47.7 | 63.8

Conditions | drug sensitivity score
BT-474 | 0
BT-549 [16] | 0
CAL-51 [15] | 6.53
CAL-85-1 [12] | 0
CAL-120 [13] | 0
CAL-148 [11] | 2.44
DU-4475 | 0
HCC1143 | 0
HCC1599 | 0
HCC1937 | 0
HDQ-P1 [14] | 0
Hs578T | 0
MDA-MB-231 [9] | 0
MDA-MB-436 | 0
MFM-223 [10] | 0

CC(O)(CS(=O)(=O)c1ccc(F)cc1)C(=O)Nc1ccc(C#N)c(C(F)(F)F)c1 (stereo not given) [Bicalutamide]
normalised viability [%]
Conditions | BT-549 [8] | CAL-51 [7] | CAL-85-1 [4] | CAL-120 [5] | CAL-148 [3] | HDQ-P1 [6] | MDA-MB-231 [1] | MDA-MB-468 | MFM-223 [2] | SK-BR-3
3 nM | – | 116 | 93.7 | – | 101 | 86.9 | – | – | – | –
10 nM | 87 | – | – | 96 | – | – | 103 | 118 | 89.2 | 104
30 nM | – | 109 | 97.3 | – | 100 | 110 | – | – | – | –
100 nM | – | 99.1 | 104 | – | 102 | 118 | – | – | – | –
1000 nM | 94.3 | – | – | 107 | – | – | 122 | 93.9 | 91.8 | 107
10000 nM | 87.2 | – | – | 119 | – | – | 122 | 91.3 | 94 | 114

Conditions | drug sensitivity score
BT-474 | 0
BT-549 [16] | 0
CAL-51 [15] | 0
CAL-85-1 [12] | 0
CAL-120 [13] | 0
CAL-148 [11] | 0
DU-4475 | 0
HCC1143 | 0
HCC1599 | 0
HCC1937 | 0
HDQ-P1 [14] | 0
Hs578T | 0
MDA-MB-231 [9] | 0
MDA-MB-436 | 0
MFM-223 [10] | 0
